Measured values: patent US20170037028A1 (BAYER PHARMA AKTIENGESELLSCHAFT, priority 2013, published 2017)

Molecular target: T1, GLUT1 (Homo sapiens, UniProt P11166)
T1 sequence (P11166 1-492): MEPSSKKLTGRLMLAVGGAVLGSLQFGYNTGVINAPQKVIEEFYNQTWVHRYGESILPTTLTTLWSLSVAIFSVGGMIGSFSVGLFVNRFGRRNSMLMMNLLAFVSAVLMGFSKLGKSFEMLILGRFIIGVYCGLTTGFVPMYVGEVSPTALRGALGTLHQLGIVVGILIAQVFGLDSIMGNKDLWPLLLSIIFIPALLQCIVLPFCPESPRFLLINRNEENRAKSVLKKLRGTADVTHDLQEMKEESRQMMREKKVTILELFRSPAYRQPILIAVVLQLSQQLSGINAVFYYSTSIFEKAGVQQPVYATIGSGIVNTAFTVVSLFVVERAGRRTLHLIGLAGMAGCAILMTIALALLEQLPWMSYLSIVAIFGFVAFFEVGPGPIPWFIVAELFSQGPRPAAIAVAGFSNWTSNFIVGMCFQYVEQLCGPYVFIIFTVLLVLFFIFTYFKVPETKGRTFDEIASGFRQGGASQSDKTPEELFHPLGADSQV
Assay: Indirect measurement of GLUT1 activity by quantification of intracellular ATP levels (glucose induced ATP increase)
Type: cell-based
Parameters: endogenous in cells; host or cells: DLD1 or CHO-K1
Settings: read-out: IC50 regarding glucose induced ATP increase (GLUT1 inhibition)
Method in brief: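 DLD1 or CHO-K1 cells were starved overnight in glucose-free medium with 1% FCS, then combined with an oxidative phosphorylation inhibitor. GLUT1 activity was read as glucose-induced ATP increase, GLUT2 as fructose-induced. Intracellular ATP was quantified by CellTiter-Glo luminescence.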

Row | SMILES | IC50 [nM]
1 | Cc1c(NC(=O)c2cc(C(N)=O)nc3cc(Cl)ccc23)c(C(F)(F)F)nn1Cc1ccc(C#N)cc1 [Example 246, 7-chloro-N^4-[1-(4-cyanobenzyl)-5-methyl-3-(trifluoromethyl)-1H-pyrazol-4-yl]quinoline-2,4-dicarboxamide] | 2.6
2 | Cc1c(NC(=O)c2cc(C(N)=O)nc3c(F)cccc23)c(C(F)(F)F)nn1Cc1ccc(C#N)cc1 [Example 247, N^4-[1-(4-cyanobenzyl)-5-methyl-3-(trifluoromethyl)-1H-pyrazol-4-yl]-8-fluoroquinoline-2,4-dicarboxamide] | 4.9
3 | Cc1c(NC(=O)c2cc(C(N)=O)nc3ccc(Cl)cc23)c(C(F)(F)F)nn1Cc1ccc(C#N)cc1 [Example 248, 6-chloro-N^4-[1-(4-cyanobenzyl)-5-methyl-3-(trifluoromethyl)-1H-pyrazol-4-yl]quinoline-2,4-dicarboxamide] | 0.6
4 | Cc1c(NC(=O)c2cc(C(N)=O)nc3cccc(F)c23)c(C(F)(F)F)nn1Cc1ccc(C#N)cc1 [Example 249, N^4-[1-(4-cyanobenzyl)-5-methyl-3-(trifluoromethyl)-1H-pyrazol-4-yl]-5-fluoroquinoline-2,4-dicarboxamide] | 1
5 | Cc1c(NC(=O)c2cc(C(N)=O)nc3ccc(Br)cc23)c(C(F)(F)F)nn1Cc1ccc(C#N)cc1 [Example 250] | 3.6
6 | Cc1nn(Cc2ccc(C#N)cc2)c(C)c1NC(=O)c1cc(C(N)=O)nc2c(F)cc(Cl)cc12 [Example 252, 6-chloro-N^4-[1-(4-cyanobenzyl)-3,5-dimethyl-1H-pyrazol-4-yl]-8-fluoroquinoline-2,4-dicarboxamide] | 1.2
7 | Cc1nn(Cc2ccc(C#N)cc2)c(C)c1NC(=O)c1cc(C(N)=O)nc2cc(F)cc(F)c12 [Example 253, N^4-[1-(4-cyanobenzyl)-3,5-dimethyl-1H-pyrazol-4-yl]-5,7-difluoroquinoline-2,4-dicarboxamide] | 0.5
8 | COc1cc2c(C(=O)Nc3c(C)nn(Cc4ccc(C#N)cc4)c3C)cc(C(N)=O)nc2cc1F [Example 254, N^4-[1-(4-cyanobenzyl)-3,5-dimethyl-1H-pyrazol-4-yl]-7-fluoro-6-methoxyquinoline-2,4-dicarboxamide] | 1.2
9 | Cc1nn(Cc2ccc(C#N)cc2)c(C)c1NC(=O)c1cc(C(N)=O)nc2c(Cl)cccc12 [Example 255, 8-chloro-N^4-[1-(4-cyanobenzyl)-3,5-dimethyl-1H-pyrazol-4-yl]quinoline-2,4-dicarboxamide] | 1.4
10 | Cc1cc2c(C(=O)Nc3c(C)nn(Cc4ccc(C#N)cc4)c3C)cc(C(N)=O)nc2cc1F [Example 256, N^4-[1-(4-cyanobenzyl)-3,5-dimethyl-1H-pyrazol-4-yl]-7-fluoro-6-methylquinoline-2,4-dicarboxamide] | 2.4
11 | Cc1nn(Cc2ccc(C#N)cc2)c(C)c1NC(=O)c1cc(C(N)=O)nc2cccc(C)c12 [Example 257, N^4-[1-(4-cyanobenzyl)-3,5-dimethyl-1H-pyrazol-4-yl]-5-methylquinoline-2,4-dicarboxamide] | 2.4
12 | COc1ccc2nc(C(N)=O)cc(C(=O)Nc3c(C)nn(Cc4ccc(C#N)cc4)c3C)c2c1 [Example 258, N^4-[1-(4-cyanobenzyl)-3,5-dimethyl-1H-pyrazol-4-yl]-6-methoxyquinoline-2,4-dicarboxamide] | 1
13 | Cc1nn(Cc2ccc(C#N)cc2)c(C)c1NC(=O)c1cc(C(N)=O)nc2ccccc12 [Example 259, N^4-[1-(4-cyanobenzyl)-3,5-dimethyl-1H-pyrazol-4-yl]quinoline-2,4-dicarboxamide] | 9.7
14 | Cc1nn(Cc2ccc(C#N)cc2)c(C)c1NC(=O)c1cc(C(N)=O)nc2cc(Cl)ccc12 [Example 260, 7-chloro-N^4-[1-(4-cyanobenzyl)-3,5-dimethyl-1H-pyrazol-4-yl]quinoline-2,4-dicarboxamide] | 4.7
15 | Cc1nn(Cc2ccc(C#N)cc2)c(C)c1NC(=O)c1cc(C(N)=O)nc2ccc(Cl)cc12 [Example 261, 6-chloro-N^4-[1-(4-cyanobenzyl)-3,5-dimethyl-1H-pyrazol-4-yl]quinoline-2,4-dicarboxamide] | 0.5

The remaining lines, values ahead:

Row | IC50 [nM] | SMILES
16 | 1.2 | Cc1nn(Cc2ccc(C#N)cc2)c(C)c1NC(=O)c1cc(C(N)=O)nc2cccc(F)c12 [Example 262, N^4-[1-(4-cyanobenzyl)-3,5-dimethyl-1H-pyrazol-4-yl]-5-fluoroquinoline-2,4-dicarboxamide]
17 | 3.9 | Cc1nn(Cc2ccc(C#N)cc2)c(C)c1NC(=O)c1cc(C(N)=O)nc2c(F)cccc12 [Example 263, N^4-[1-(4-cyanobenzyl)-3,5-dimethyl-1H-pyrazol-4-yl]-8-fluoroquinoline-2,4-dicarboxamide]
18 | 2.6 | Cc1ccc2nc(C(N)=O)cc(C(=O)Nc3c(C)nn(Cc4ccc(C#N)cc4)c3C)c2c1 [Example 264, N^4-[1-(4-cyanobenzyl)-3,5-dimethyl-1H-pyrazol-4-yl]-6-methylquinoline-2,4-dicarboxamide]
19 | 6.6 | COc1cc(C(=O)Nc2c(C)nn(Cc3ccc(C#N)cc3)c2C)c2cc(F)ccc2n1 [Example 265, N-[1-(4-cyanobenzyl)-3,5-dimethyl-1H-pyrazol-4-yl]-6-fluoro-2-methoxyquinoline-4-carboxamide]
20 | 1 | Cc1nn(Cc2ccccc2C#N)c(C)c1NC(=O)c1cc(C(N)=O)nc2cc(F)ccc12 [Example 266, N^4-[1-(2-cyanobenzyl)-3,5-dimethyl-1H-pyrazol-4-yl]-7-fluoroquinoline-2,4-dicarboxamide]
21 | 2.6 | Cc1nn(Cc2ccccc2C#N)c(C)c1NC(=O)c1cc(C(N)=O)nc2cccc(F)c12 [Example 267, N^4-[1-(2-cyanobenzyl)-3,5-dimethyl-1H-pyrazol-4-yl]-5-fluoroquinoline-2,4-dicarboxamide]
22 | 0.6 | Cc1nn(Cc2ccccc2C#N)c(C)c1NC(=O)c1cc(C(N)=O)nc2ccc(Br)cc12 [Example 268, 6-bromo-N^4-[1-(2-cyanobenzyl)-3,5-dimethyl-1H-pyrazol-4-yl]quinoline-2,4-dicarboxamide]
23 | 1.5 | Cc1nn(Cc2ccccc2C#N)c(C)c1NC(=O)c1cc(C(N)=O)nc2c(F)cc(Cl)cc12 [Example 269, 6-chloro-N^4-[1-(2-cyanobenzyl)-3,5-dimethyl-1H-pyrazol-4-yl]-8-fluoroquinoline-2,4-dicarboxamide]
24 | 1.8 | Cc1c(NC(=O)c2cc(C(N)=O)nc3cc(F)c(Cl)cc23)c(C(F)(F)F)nn1Cc1ccccc1C#N [Example 270, 6-chloro-N^4-[1-(2-cyanobenzyl)-5-methyl-3-(trifluoromethyl)-1H-pyrazol-4-yl]-7-fluoroquinoline-2,4-dicarboxamide]
25 | 3.6 | Cc1c(NC(=O)c2cc(C(N)=O)nc3ccccc23)c(C(F)(F)F)nn1Cc1ccccc1C#N [Example 271, N^4-[1-(2-cyanobenzyl)-5-methyl-3-(trifluoromethyl)-1H-pyrazol-4-yl]quinoline-2,4-dicarboxamide]
26 | 2.5 | Cc1c(NC(=O)c2cc(C(N)=O)nc3cc(F)ccc23)c(C(F)(F)F)nn1Cc1ccccc1C#N [Example 272, N^4-[1-(2-cyanobenzyl)-5-methyl-3-(trifluoromethyl)-1H-pyrazol-4-yl]-7-fluoroquinoline-2,4-dicarboxamide]
27 | 5.9 | Cc1c(NC(=O)c2cc(C(N)=O)nc3cccc(F)c23)c(C(F)(F)F)nn1Cc1ccccc1C#N [Example 273, N^4-[1-(2-cyanobenzyl)-5-methyl-3-(trifluoromethyl)-1H-pyrazol-4-yl]-5-fluoroquinoline-2,4-dicarboxamide]
28 | 1 | Cc1c(NC(=O)c2cc(C(N)=O)nc3ccc(Br)cc23)c(C(F)(F)F)nn1Cc1ccccc1C#N [Example 274, 6-bromo-N^4-[1-(2-cyanobenzyl)-5-methyl-3-(trifluoromethyl)-1H-pyrazol-4-yl]quinoline-2,4-dicarboxamide]
29 | 1.1 | COc1ccc(Cn2nc(C)c(NC(=O)c3cc(C(N)=O)nc4cc(F)ccc34)c2C)cc1 [Example 275, 7-fluoro-N^4-[1-(4-methoxybenzyl)-3,5-dimethyl-1H-pyrazol-4-yl]quinoline-2,4-dicarboxamide]
30 | 1.3 | COc1ccc(Cn2nc(C)c(NC(=O)c3cc(C(N)=O)nc4c(F)cc(Cl)cc34)c2C)cc1 [Example 276, 6-chloro-8-fluoro-N^4-[1-(4-methoxybenzyl)-3,5-dimethyl-1H-pyrazol-4-yl]quinoline-2,4-dicarboxamide]
31 | 1.8 | COc1ccc(Cn2nc(C(F)(F)F)c(NC(=O)c3cc(C(N)=O)nc4ccccc34)c2C)cc1 [Example 277, N^4-[1-(4-methoxybenzyl)-5-methyl-3-(trifluoromethyl)-1H-pyrazol-4-yl]quinoline-2,4-dicarboxamide]
32 | 1.4 | COc1ccc(Cn2nc(C(F)(F)F)c(NC(=O)c3cc(C(N)=O)nc4cc(F)c(Cl)cc34)c2C)cc1 [Example 278, 6-chloro-7-fluoro-N^4-[1-(4-methoxybenzyl)-5-methyl-3-(trifluoromethyl)-1H-pyrazol-4-yl]quinoline-2,4-dicarboxamide]
33 | 1.4 | COc1ccc(Cn2nc(C(F)(F)F)c(NC(=O)c3cc(C(N)=O)nc4cc(F)c(F)cc34)c2C)cc1 [Example 279, 6,7-difluoro-N^4-[1-(4-methoxybenzyl)-5-methyl-3-(trifluoromethyl)-1H-pyrazol-4-yl]quinoline-2,4-dicarboxamide]
